Source: ChEMBL document CHEMBL5376018 (RSC Med Chem, 2024)

Tests used:
[1] = system: rhinovirus B14; experiment: Antiviral activity against Human rhinovirus 14 infected in human H1-HeLa cells incubated for 3 days measured by crystal violet staining based plaque counting analysis; conditions: Rhinovirus B, 72 h
[2] = Selectivity index, ratio of CC50 for cytotoxicity against human H1-HeLa cells infected with 1 MOI human rhinovirus 16 to EC50 for antiviral activity against Human rhinovirus 16 infected in human H1-HeLa cells; format: toxicity, cell-based; conditions: H1-HeLa cells infected with human rhinovirus 16, read-out: Ratio CC50/EC50
[3] = system: H1-HeLa; experiment: cells; conditions: Homo sapiens, 1 h
[4] = Selectivity index, ratio of CC50 for cytotoxicity against human H1-HeLa cells infected with 1 MOI human rhinovirus 14 to EC50 for antiviral activity against Human rhinovirus 14 infected in human H1-HeLa cells; format: toxicity, cell-based; conditions: H1-HeLa cells infected with human rhinovirus 14, read-out: Ratio CC50/EC50
[5] = system: rhinovirus A21; experiment: Antiviral activity against Human rhinovirus A21 infected in human H1-HeLa cells incubated for 3 days measured by crystal violet staining based plaque counting analysis; conditions: Rhinovirus A, 72 h
[6] = system: rhinovirus A16; experiment: Antiviral activity against Human rhinovirus 16 infected in human H1-HeLa cells incubated for 3 days measured by crystal violet staining based plaque counting analysis; conditions: Rhinovirus A, 72 h
[7] = Selectivity index, ratio of CC50 for cytotoxicity against human H1-HeLa cells infected with 1 MOI human rhinovirus 21 to EC50 for antiviral activity against Human rhinovirus 21 infected in human H1-HeLa cells; format: toxicity, cell-based; conditions: H1-HeLa cells infected with human rhinovirus 21, read-out: Ratio CC50/EC50

**Q.** Which results are given for `COc1ccc(-c2sc(NC(=O)C(C)(C)C)nc2C)cc1S(=O)(=O)NCc1cccc(S(C)(=O)=O)c1`?
**A.** EC50 [1]: 3800 nM; selectivity ratio [2]: > 10; CC50 [3]: > 20000 nM; selectivity ratio [4]: > 5; EC50 [5]: 4500 nM; EC50 [6]: 2000 nM; selectivity ratio [7]: > 4

**Q.** With `CCOC(=O)/C=C/[C@H](C[C@@H]1CCNC1=O)NC(=O)[C@@H](CC(=O)[C@@H](NC(=O)c1cc(C)on1)C(C)C)Cc1ccc(F)cc1` as the compound, how does the EC50 [1] read?
**A.** 58 nM

**Q.** And the CC50 [3]?
**A.** > 100000 nM

**Q.** What about the EC50 [5] of the same compound?
**A.** 95 nM

**Q.** What about the EC50 [6] of the same compound?
**A.** 80 nM

**Q.** With `COc1ccc(-c2sc(NC(=O)C(C)(C)C)nc2C)cc1S(=O)(=O)CCc1ccncc1` as the compound, how does the EC50 [1] read?
**A.** 1300 nM

**Q.** What about the selectivity ratio [2] of the same compound?
**A.** > 13

**Q.** And the CC50 [3]?
**A.** 12500 nM

**Q.** And the selectivity ratio [4]?
**A.** > 10

**Q.** And the EC50 [5]?
**A.** 1700 nM

**Q.** What about the EC50 [6] of the same compound?
**A.** 1000 nM

**Q.** And the selectivity ratio [7]?
**A.** > 7

**Q.** Which results are given for `COc1ccc(-c2sc(NC(C)=O)nc2C)cc1`?
**A.** EC50 [1]: 14500 nM; selectivity ratio [2]: > 2; CC50 [3]: > 20000 nM; selectivity ratio [4]: > 1; EC50 [5]: 17700 nM; EC50 [6]: 12000 nM; selectivity ratio [7]: > 1

**Q.** For `COc1ccc(-c2sc(NC(C)=O)nc2C)cc1S(=O)(=O)CCN1CCOCC1`, which EC50 [1] is on record?
**A.** 1400 nM

**Q.** And the selectivity ratio [2]?
**A.** > 15

**Q.** And the CC50 [3]?
**A.** > 20000 nM

**Q.** What about the selectivity ratio [4] of the same compound?
**A.** > 14

**Q.** And the EC50 [5]?
**A.** 3200 nM

**Q.** What about the EC50 [6] of the same compound?
**A.** 1300 nM

**Q.** And the selectivity ratio [7]?
**A.** > 6

**Q.** With `CC(=O)Nc1nc(C)c(-c2ccc(Cl)c(S(=O)(=O)NCCO)c2)s1` as the compound, how does the EC50 [1] read?
**A.** 770 nM

**Q.** What about the selectivity ratio [2] of the same compound?
**A.** 19

**Q.** And the CC50 [3]?
**A.** 15800 nM

**Q.** What about the selectivity ratio [4] of the same compound?
**A.** 21

**Q.** What about the EC50 [5] of the same compound?
**A.** 1600 nM

**Q.** And the EC50 [6]?
**A.** 840 nM

**Q.** What about the selectivity ratio [7] of the same compound?
**A.** 10

**Q.** Which EC50 [1] does the source give for `COc1ccc(-c2sc(NC(=O)C(C)(C)C)nc2C)cc1S(=O)(=O)NCCNC(C)=O` here?
**A.** 4400 nM

**Q.** What about the selectivity ratio [2] of the same compound?
**A.** > 6

**Q.** And the CC50 [3]?
**A.** > 20000 nM

**Q.** What about the selectivity ratio [4] of the same compound?
**A.** > 5

**Q.** What about the EC50 [5] of the same compound?
**A.** 9100 nM

**Q.** And the EC50 [6]?
**A.** 3300 nM

**Q.** What about the selectivity ratio [7] of the same compound?
**A.** > 2

**Q.** For `COCCNS(=O)(=O)c1cc(-c2sc(NC(=O)C(C)(C)C)nc2C)ccc1OC`, which EC50 [1] is on record?
**A.** 1300 nM

**Q.** And the selectivity ratio [2]?
**A.** > 25

**Q.** And the CC50 [3]?
**A.** > 20000 nM

**Q.** What about the selectivity ratio [4] of the same compound?
**A.** > 15

**Q.** And the EC50 [5]?
**A.** 1500 nM

**Q.** And the EC50 [6]?
**A.** 790 nM

**Q.** What about the selectivity ratio [7] of the same compound?
**A.** > 13

**Q.** Which results are given for `COc1ccc(-c2sc(NC(=O)C(C)(C)C)nc2C)cc1S(=O)(=O)NCCN1CCOCC1`?
**A.** EC50 [1]: 1000 nM; selectivity ratio [2]: > 36; CC50 [3]: > 20000 nM; selectivity ratio [4]: > 20; EC50 [5]: 1800 nM; EC50 [6]: 560 nM; selectivity ratio [7]: > 11
